The source of these data is ChEMBL document CHEMBL3994630, “Antiparasitic lethality of sulfonamidebenzamides in kinetoplastids” (Bioorg Med Chem Lett, 2017).

In one series the test system is IMR-90. Put plainly: Cytotoxicity against human IMR90 cells after 44 to 46 hrs by CellTiter-Blue assay. The series is classed as cell-based. (Resazurin is reduced to fluorescent resorufin, in cell work by metabolically active cells.)
The next series has as its system Leishmania amazonensis. Put plainly: Anti-parasitic activity against Leishmania amazonensis promastigotes after 44 hrs by CellTiter-Blue assay. It is filed as functional.
The nature of series [1]: Selectivity index, ratio of EC50 for cytotoxicity against human IMR90 cells to EC50 for antitrypanosomal activity against Trypanosoma brucei 90-13 bloodstream forms. It is filed as toxicity, cell-based. Particulars: read-out: Ratio EC50.
Series [2] is described as follows: Selectivity index, ratio of EC50 for cytotoxicity against human IMR90 cells to EC50 for anti-parasitic activity against Leishmania amazonensis promastigotes. The series is classed as toxicity, cell-based. Particulars: read-out: Ratio EC50.
In series [3] the test system is Trypanosoma brucei. Put plainly: Antitrypanosomal activity against Trypanosoma brucei 90-13 bloodstream forms after 72 hrs by CellTiter-Blue assay. It is filed as functional. To be noted: 90-13, 72 h.
The subject of series [4] is Trypanosoma brucei. The series is described as follows: Induction of apoptosis in Trypanosoma brucei 29-13 procyclic forms after 6 to 24 hrs by Annexin-V-FITC/propidium iodide staining based flow cytometry (reference value: 658 RFU). The series is classed as functional. For orientation: In flow cytometry, cells or beads pass a laser one at a time.
The test system of series [5] is Trypanosoma brucei. The series is described as follows: Induction of apoptosis in Trypanosoma brucei 90-13 bloodstream forms after 6 to 24 hrs by Annexin-V-FITC/propidium iodide staining based flow cytometry. The series is classed as functional.
The test system of series [6] is Trypanosoma brucei. The series is described as follows: Induction of apoptosis in Trypanosoma brucei 90-13 bloodstream forms at EC50 after 6 hrs by Annexin-V-FITC/propidium iodide staining based flow cytometry (reference value: 47.3%). It is filed as functional.
Series [7] has as its system Trypanosoma brucei. The series is described as follows: Induction of apoptosis in Trypanosoma brucei 90-13 bloodstream forms assessed as dead cells at EC50 after 6 to 24 hrs by Annexin-V-FITC/propidium iodide staining based flow cytometry (reference value: 49.7%). The series is classed as functional.

pEC50: −log10 of the molar value. The source made the active and inactive calls. No cut-off for these calls is given here.

The term pEC50 denotes the negative decadic logarithm of the EC50, by convention in mol/L. Lower therefore signals a large EC50.

Consider `O=C(Nc1ccc(S(=O)(=O)C2=CCOC=C2)cc1)c1ccc([N+](=O)[O-])o1`, for which the pEC50 in the series with IMR-90 is less than 4.60; in the series on Leishmania amazonensis, 6.52; with Trypanosoma brucei [3], 6.28. Besides, the selectivity ratio was more than 47 in [1] and more than 83 in series [2].
The matching figures for `CC1(C)CCN(S(=O)(=O)c2cccc(NC(=O)c3ccc([N+](=O)[O-])o3)c2)CC1`: less than 4.60, 7.00, 6.49, more than 78 and more than 250.
For the compound `O=C(Nc1ccc(S(=O)(=O)N2CCOCC2)cc1)c1cccs1`, the pEC50 is less than 4.60 in the series with IMR-90, less than 4.60 in the series with Leishmania amazonensis and less than 5.00 in the series with Trypanosoma brucei [3].
For `O=C(Nc1ccc(S(=O)(=O)N2CCC(O)CC2)cc1)c1ccc([N+](=O)[O-])o1`, the pEC50 was less than 4.60 in the series with IMR-90, 5.36 in the series with Leishmania amazonensis and 6.51 in the series with Trypanosoma brucei [3]. The selectivity ratio in series [1] is more than 81; in [2] it was more than 6. In the series on Trypanosoma brucei [4], this compound yielded an Activity of 849 RFU. In the series on Trypanosoma brucei [5], the result was Active.
As for `CC1(C)CCN(S(=O)(=O)c2ccc(NC(=O)c3ccc(C(F)(F)F)o3)cc2)CC1`, the pEC50 in the series with IMR-90 is less than 4.60; in the series on Leishmania amazonensis it was 4.97; with Trypanosoma brucei [3], 5.12. Besides, the figures for the selectivity ratio in series [1] and in [2] were more than 3 and more than 2, respectively.
For the compound `CC1(C)CCN(S(=O)(=O)c2ccc(NC(=O)c3ccc([N+](=O)[O-])o3)cc2)CC1`, the pEC50 was less than 4.60 with IMR-90, 6.55 with Leishmania amazonensis and 7.05 in the series on Trypanosoma brucei [3]. For the same compound, the selectivity ratio is more than 278 in series [1] and more than 89 in series [2].
`CC1CS(=O)(=O)CCN1/N=C/c1ccc([N+](=O)[O-])o1` (configuration not stated) [NIFURTIMOX]: the pEC50 in the series on IMR-90 is less than 4.60; with Leishmania amazonensis, 6.10; in the series on Trypanosoma brucei [3] it was 5.12.
Turning to `O=C(Nc1ccc(S(=O)(=O)N2CCOCC2)cc1)c1ccc([N+](=O)[O-])o1`, the pEC50 in the series on IMR-90 was less than 4.60; with Leishmania amazonensis, 5.52; in the series with Trypanosoma brucei [3], 6.34. For the same compound, the selectivity ratio is more than 54 in series [1] and more than 8 in [2].
As for `CC(C)(C)C1CCN(S(=O)(=O)c2ccc(NC(=O)c3ccc([N+](=O)[O-])o3)cc2)CC1`, the pEC50 with IMR-90 was less than 4.60; in the series on Leishmania amazonensis, 5.85; in the series on Trypanosoma brucei [3], 7.52. The selectivity ratio in series [1] is more than 833; in series [2], more than 18. Also, the Activity with Trypanosoma brucei [6] was 82%; in the series with Trypanosoma brucei [7], 48.2%.
Regarding `CC1(C)CCN(S(=O)(=O)c2cccc(NC(=O)c3cccc([N+](=O)[O-])c3)c2)CC1`, the pEC50 in the series on IMR-90 was less than 4.60; in the series with Leishmania amazonensis, 5.52; in the series on Trypanosoma brucei [3] it was 4.98. In addition, the selectivity ratio in [1] is more than 2; in [2], more than 8.
As for `O=C(Nc1ccc(S(=O)(=O)N2CCOCC2)cc1)c1ccc([N+](=O)[O-])s1`, the pEC50 is less than 4.60 with IMR-90, 5.89 in the series on Leishmania amazonensis and 7.22 with Trypanosoma brucei [3]. The selectivity ratio in [1] was more than 417; in [2], more than 19.
In the case of `O=C(Nc1ccc(S(=O)(=O)N2CCC3(CCCCC3)CC2)cc1)c1ccc([N+](=O)[O-])s1`, the pEC50 with IMR-90 is less than 4.60; in the series on Leishmania amazonensis, 7.00; in the series on Trypanosoma brucei [3] it was 7.70. Besides, the results for the selectivity ratio in [1] and in [2] were more than 1250 and more than 250, respectively.
For `O=C(Nc1ccc(S(=O)(=O)C2CCCCC2)cc1)c1ccc([N+](=O)[O-])o1` the same measures were less than 4.60, 5.80, 6.31, more than 51 and more than 16.
As to `CC1(C)CCN(S(=O)(=O)c2ccc(NC(=O)c3cccc([N+](=O)[O-])c3)cc2)CC1`, the pEC50 in the series on IMR-90 is less than 4.60; in the series on Leishmania amazonensis, 4.88; in the series on Trypanosoma brucei [3], 5.18. The selectivity ratio is more than 4 in [1] and more than 2 in [2].
Turning to `O=C(Nc1ccc(S(=O)(=O)N2CCOCC2)cc1)c1ccco1`, the results for the pEC50 in the series on IMR-90, in the series with Leishmania amazonensis and with Trypanosoma brucei [3] were less than 4.60, less than 4.60 and less than 5.00, respectively.
Regarding `O=C(Nc1ccc(S(=O)(=O)N2CCC3(CCCCC3)CC2)cc1)c1ccc([N+](=O)[O-])o1`, the pEC50 in the series with IMR-90 was less than 4.60; in the series on Leishmania amazonensis, 5.82; in the series with Trypanosoma brucei [3], 7.52. For the same compound, the selectivity ratio was more than 833 in [1] and more than 17 in series [2].
As to `O=C(Nc1ccc(S(=O)(=O)N2CCOCC2)cc1)c1ccccc1`, the pEC50 is less than 4.60 in the series with IMR-90, less than 4.60 with Leishmania amazonensis and less than 5.00 in the series on Trypanosoma brucei [3].
On to `CC1CCN(S(=O)(=O)c2ccc(NC(=O)c3ccc([N+](=O)[O-])o3)cc2)CC1`, for which the pEC50 in the series with IMR-90 is less than 4.60; in the series with Leishmania amazonensis it was 5.11; with Trypanosoma brucei [3], 6.92. Moreover, the selectivity ratio in [1] was more than 208; in series [2], more than 3.
For `O=C(Nc1ccc(S(=O)(=O)N2CCCCC2)cc1)c1ccc([N+](=O)[O-])o1` the same measures were less than 4.60, 4.86, 6.66, more than 114 and more than 2.
In the case of `CC1(C)CCN(S(=O)(=O)c2cccc(NC(=O)c3ccc([N+](=O)[O-])s3)c2)CC1`, the pEC50 in the series on IMR-90 was less than 4.60; in the series with Leishmania amazonensis, 5.89; with Trypanosoma brucei [3], 7.35. Also, the values for the selectivity ratio in series [1] and in [2] were more than 556 and more than 19, respectively.
For `O=C(Nc1ccc(S(=O)(=O)c2ccccc2)cc1)c1ccc([N+](=O)[O-])o1` the same measures were less than 4.60, 5.37, 6.96, more than 227 and more than 6.
The matching figures for `N=C1CCN(S(=O)(=O)c2ccc(NC(=O)c3ccc([N+](=O)[O-])o3)cc2)CC1`: less than 4.60, 4.98, 6.14, more than 34 and more than 2.
The matching figures for `O=C(Nc1ccc(S(=O)(=O)N2CCC(F)CC2)cc1)c1ccc([N+](=O)[O-])o1`: less than 4.60, 5.13, 6.38, more than 60 and more than 3.
For `O=C(Nc1ccc(S(=O)(=O)N2CCOCC2)cc1)c1ccc([N+](=O)[O-])cc1`, the negative logarithm of the EC50 (pEC50) was less than 4.60 in the series with IMR-90, less than 4.60 in the series with Leishmania amazonensis and less than 5.00 with Trypanosoma brucei [3].
Turning to `O=C(Nc1cccc(S(=O)(=O)N2CCOCC2)c1)c1ccc([N+](=O)[O-])o1`, the pEC50 with IMR-90 is less than 4.60; with Leishmania amazonensis, 6.05; in the series with Trypanosoma brucei [3], 5.83. Moreover, the values for the selectivity ratio in series [1] and in series [2] were more than 17 and more than 28, respectively.
On to `Cc1ccc(C(=O)Nc2ccc(S(=O)(=O)N3CCOCC3)cc2)o1`, for which the results for the pEC50 in the series with IMR-90, with Leishmania amazonensis and in the series on Trypanosoma brucei [3] were less than 4.60, less than 4.60 and less than 5.00, respectively.
For the compound `CC1(C)CCN(S(=O)(=O)c2ccc(NC(=O)c3ccc([N+](=O)[O-])s3)cc2)CC1`, the pEC50 is less than 4.60 in the series on IMR-90, 7.00 in the series with Leishmania amazonensis and 8.00 in the series on Trypanosoma brucei [3]. Further, the selectivity ratio in series [1] was more than 2500; in [2], more than 250.
For `O=C(Nc1ccc(S(=O)(=O)N2CCC(Cl)CC2)cc1)c1ccc([N+](=O)[O-])o1` the same measures were less than 4.60, 5.10, 7.10, more than 313 and more than 3.
For `CC(C)(C)C1CCN(S(=O)(=O)c2ccc(NC(=O)c3ccc([N+](=O)[O-])s3)cc2)CC1` the same measures were less than 4.60, 7.00, 7.52, more than 833 and more than 250.
For `CC1(C)CCN(S(=O)(=O)c2cccc(NC(=O)c3ccco3)c2)CC1` the same measures were less than 4.60, 5.92, 5.29, more than 5 and more than 21.
